Measured values as given in patent US11235018B2, “Composition for preventing or treating cancer” (OKCHUNDANG CO., LTD., priority 2018, dated 2022).
Marks after values point to notes of the source that are not given here.

Experiments:
[1] = Body weight and weight gain in NCI-H520 xenograft mice; type: in vivo; details: single: gefitinib 120 mg/kg or SKOG 400 mg/kg
[2] = tested on: NCI-H520 tumor cell xenograft; experiment: Tumor volume in NCI-H520 xenograft mice; type: in vivo; details: single: gefitinib 120 mg/kg or SKOG 400 mg/kg
[3] = tested on: NCI-H520 tumor cell xenograft; experiment: Tumor weight in NCI-H520 xenograft mice; type: in vivo; details: single: gefitinib 120 mg/kg or SKOG 400 mg/kg, oral, 35 days
[4] = Spleen weight in NCI-H520 xenograft mice; type: in vivo; details: single: gefitinib 120 mg/kg or SKOG 400 mg/kg, oral, 35 days
[5] = Submandibular lymph node weight in NCI-H520 xenograft mice; type: in vivo; details: single: gefitinib 120 mg/kg or SKOG 400 mg/kg, oral, 35 days
[6] = Periovarian fat weight in NCI-H520 xenograft mice; type: in vivo; details: single: gefitinib 120 mg/kg or SKOG 400 mg/kg, oral, 35 days
[7] = tested on: IL-6; experiment: Serum IL-6 level in NCI-H520 xenograft mice; type: in vivo; details: single: gefitinib 120 mg/kg or SKOG 400 mg/kg, oral, 35 days
[8] = tested on: IFN-γ; experiment: Serum IFN-γ level in NCI-H520 xenograft mice; type: in vivo; details: single: gefitinib 120 mg/kg or SKOG 400 mg/kg, oral, 35 days
[9] = tested on: splenic NK cell; experiment: Splenic NK cell activity in NCI-H520 xenograft mice; type: in vivo; details: single: gefitinib 120 mg/kg or SKOG 400 mg/kg, oral, 35 days
[10] = tested on: peritoneal NK cell; experiment: Peritoneal NK cell activity in NCI-H520 xenograft mice; type: in vivo; details: single: gefitinib 120 mg/kg or SKOG 400 mg/kg, oral, 35 days
[11] = tested on: TNF-α; experiment: Splenic TNF-α level in NCI-H520 xenograft mice; type: in vivo; details: single: gefitinib 120 mg/kg or SKOG 400 mg/kg, oral, 35 days
[12] = tested on: IL-1β; experiment: Splenic IL-1β level in NCI-H520 xenograft mice; type: in vivo; details: single: gefitinib 120 mg/kg or SKOG 400 mg/kg, oral, 35 days
[13] = tested on: IL-10; experiment: Splenic IL-10 level in NCI-H520 xenograft mice; type: in vivo; details: single: gefitinib 120 mg/kg or SKOG 400 mg/kg, oral, 35 days
[14] = tested on: NCI-H520 tumor cell xenograft; experiment: Histopathological change of tumor mass (tumor cell volume, apoptotic cells); type: in vivo, mice; details: single: gefitinib 120 mg/kg or SKOG 400 mg/kg, oral, 35 days
[15] = tested on: Caspase-3; experiment: Intratumoral caspase-3 immune response cells; type: in vivo, mice; details: single: gefitinib 120 mg/kg or SKOG 400 mg/kg, oral, 35 days
[16] = tested on: PARP; experiment: Intratumoral PARP immune response cells; type: in vivo, mice; details: single: gefitinib 120 mg/kg or SKOG 400 mg/kg, oral, 35 days
[17] = tested on: COX-2; experiment: Intratumoral COX-2 immune response cells; type: in vivo, mice; details: single: gefitinib 120 mg/kg or SKOG 400 mg/kg, oral, 35 days
[18] = tested on: iNOS; experiment: Intratumoral iNOS immune response cells; type: in vivo, mice; details: single: gefitinib 120 mg/kg or SKOG 400 mg/kg, oral, 35 days
[19] = tested on: TNF-α; experiment: Intratumoral TNF-α immune response cells; type: in vivo, mice; details: single: gefitinib 120 mg/kg or SKOG 400 mg/kg, oral, 35 days
[20] = Histopathological change of spleen; type: in vivo, mice; details: single: gefitinib 120 mg/kg or SKOG 400 mg/kg, oral, 35 days
[21] = Histopathological change of submandibular lymph nodes; type: in vivo, mice; details: single: gefitinib 120 mg/kg or SKOG 400 mg/kg, oral, 35 days
[22] = Histopathological change of periovarian fat; type: in vivo, mice; details: single: gefitinib 120 mg/kg or SKOG 400 mg/kg, oral, 35 days

## COc1cc2ncnc(Nc3ccc(F)c(Cl)c3)c2cc1OCCCN1CCOCC1 [Gefitinib, N-(3-chloro-4-fluorophenyl)-7-methoxy-6-(3-morpholinopropoxy)quinazolin-4-amine]
[1]; baseline
  Body weight, administration initiation: 19.29 ± 1.29 g
[1]; oral, 35 days
  Actual body weight (excluding tumor weight): 18.46 ± 0.77^ad g
  Body weight, sacrifice: 20.13 ± 0.76^fg
  Weight gain: −0.83 ± 0.98^ac g
  change of actual body weight excluding tumor weight compared with tumor xenograft group: −6.61%
  change of weight gain during administration period compared with tumor xenograft control group: −341.95%
[2]; baseline
  Tumor volume, start of administration [A]: 462.10 ± 105.87 mm^3
[2]; oral, 35 days
  Tumor volume change [B − A]: 2396.41 ± 329.84 ^a mm^3
  Tumor volume, at the time of sacrifice [B]: 2858.51 ± 377.01^a mm^3
[2]; oral, five weeks
  change in tumor volume during drug administration period compared with tumor xenograft control group: −60.18%
[3]
  Tumor weight (absolute weight): 1.664 ± 0.292^f
  Tumor weight (relative weight): 8.274 ± 1.443^g
  change in absolute tumor weight compared with tumor xenograft control group: −40.73%
  change in relative tumor weight compared with tumor xenograft control group: −33.56%
[4]
  Spleen (absolute weight): 0.051 ± 0.007^a
  Spleen (relative weight): 0.251 ± 0.036^a
  change of absolute spleen weight compared with tumor xenograft control group: −7.13%
  change of relative spleen weight compared with tumor xenograft control group: 4.11%
[5]
  Submandibular lymph nodes (absolute weight): 0.004 ± 0.001^d
  change in absolute submandibular lymph node weight compared with tumor xenograft control group: −8.82%
  change in relative submandibular lymph node weight compared with tumor xenograft control group: 1.85%
  submandibular lymph nodes (relative weight): 0.019 ± 0.006^e
[6]
  Periovarian fat (absolute weight): 0.007 ± 0.002^d
  Periovarian fat (relative weight): 0.036 ± 0.011^e
  change of absolute periovarian fat weight compared with tumor xenograft control group: −13.43%
  change of relative periovarian fat weight compared with tumor xenograft control group: −2.79%
[7]
  change of serum IL-6 level compared with tumor xenograft control group: 6.25%
[8]
  change of serum IFN-γ level compared with tumor xenograft control group: −2.85%
[9]
  change of splenic NK cell activity compared with tumor xenograft control group: −6.32%
[10]
  change of peritoneal NK cell activity compared with tumor xenograft control group: −7.43%
[11]
  Splenic TNF-α (Tumor necrosis factor-α) level: 26.23 ± 10.81^a
  change of splenic TNF-α level compared with tumor xenograft control group: −0.24%
[12]
  Splenic IL-1β (Interleukin-1β) level: 8.36 ± 1.96^a
  change of splenic IL-1β level compared with tumor xenograft control group: −3.18%
[13]
  Splenic IL-10 (Interleukin-10) level: 25.58 ± 11.94^a
  change of splenic IL-10 level compared with tumor xenograft control group: −3.53%
[14]
  Percentage of apoptotic cells: 49.88%
  Tumor cell volume: 56.28 %/mm^2
  change of proportion of apoptotic cells in the tumor tissue compared with tumor xenograft control group: 560.23%
  change of proportion of tumor cells in the tumor tissue compared with tumor xenograft control group: −29.01%
[15]
  Percentage of immune-responsive cells, Caspase-3: 40.60 %/tumor cells
  change of proportion of caspase-3 immune response cells in the tumor tissue compared with tumor xenograft control group: 268.77%
[16]
  Percentage of immune-responsive cells, PARP: 46.98 %/tumor cells
  change of proportion of PARP immune response cells in the tumor tissue compared with tumor xenograft control group: 223.59%
[17]
  Percentage of immune-responsive cells, COX-2: 38.89 %/tumor cells
  change of proportion of COX-2 immune response cells in the tumor tissue compared with tumor xenograft control group: −35.00%
[18]
  Percentage of immune-responsive cells, iNOS: 12.07 %/tumor cells
  change of proportion of iNOS immune response cells in the tumor tissue compared with tumor xenograft control group: −0.50%
[19]
  Percentage of immune-responsive cells, TNF-α: 7.28 %/tumor cells
  change of proportion of TNF-α immune response cells in the tumor tissue compared with tumor xenograft control group: −6.19%
[20]
  Number of splenic white pulps: 4.63 ± 1.85^a /mm^2
  Splenic white pulp diameter: 187.63 ± 73.54^e μm/white pulp
  change of number of splenic white pulps compared with tumor xenograft control group: −5.13%
  change of splenic overall thickness compared with tumor xenograft control group: 0.42%
  change of splenic white pulp diameter compared with tumor xenograft control group: −0.60%
[21]
  Number of intracortical follicles: 5.38 ± 2.39^d /mm^2
  change of number of intracortical follicles in the submandibular lymph nodes compared with tumor xenograft control group: −6.52%
  change of submandibular lymph node cortex thickness compared with tumor xenograft control group: −3.84%
  change of submandibular lymph node overall thickness compared with tumor xenograft control group: −2.55%
  cortex thickness: 215.75 ± 43.93^d μm/lymph node
  submandibular lymph node overall thickness: 501.50 ± 106.64^a μm/central region
[22]
  White fat cell average diameter: 12.36 ± 1.95^d μm
  change of periovarian accumulation fat thickness compared with tumor xenograft control group: −8.19%
  change of white fat cell average diameter compared with tumor xenograft control group: −6.37%
